These results are taken from ChEMBL document CHEMBL3856191, “Structural modifications at the 6-position of thieno[2,3-d]pyrimidines and their effects on potency at FLT3 for treatment of acute myeloid leukemia” (Eur J Med Chem, 2016).

System in the first data set: not listed separately
Put plainly: Metabolic stability in rat liver microsomes assessed as compound remaining at 1 uM after 30 mins in presence of NADPH by HPLC-MS analysis. It counts as ADME. As to conditions: liver microsomes, read-out: Stability. A general note: Liver microsomes are vesicles of endoplasmic reticulum, rich in cytochrome P450 enzymes.
On to `CC1=CC(=O)N(Nc2nc(-c3cccs3)nc3sc(-c4ccc(O)cc4)c(C)c23)C1=O`, for which the remaining at 0.5 h, 1 µM was 28.8%.

As for `CC1=CC(=O)N(Nc2nc(-c3cccs3)nc3sc(-c4ccc(OCCNCCC#N)cc4)c(C)c23)C1=O`, the remaining at 0.5 h, 1 µM stood at 32.1%.

On to `CC1=CC(=O)N(Nc2nc(-c3cccs3)nc3sc(-c4ccc(OCCNCc5ccccc5)cc4)c(C)c23)C1=O`, for which the remaining at 0.5 h, 1 µM came to 30.4%.

As for `CC1=CC(=O)N(Nc2nc(-c3cccs3)nc3sc(C#N)c(C)c23)C1=O`, the remaining at 0.5 h, 1 µM turned out to be 26.1%.

As to `CC1=CC(=O)N(Nc2nc(-c3cccs3)nc3sc(-c4ccc(OCc5ccc(F)cc5)cc4)c(C)c23)C1=O`, the remaining at 0.5 h, 1 µM worked out at 35.6%.

As for `CC1=CC(=O)N(Nc2nc(-c3cccs3)nc3sc(-c4ccc(OCC5CCCO5)cc4)c(C)c23)C1=O` (stereo unspecified), the remaining at 0.5 h, 1 µM was determined as 41%.

Take `CC1=CC(=O)N(Nc2nc(-c3cccs3)nc3sc(-c4ccc(F)cc4)cc23)C1=O`: the remaining at 0.5 h, 1 µM turned out to be 26.9%.

On to `CC1=CC(=O)N(Nc2nc(-c3cccs3)nc3sc(CO)c(C)c23)C1=O`, for which the remaining at 0.5 h, 1 µM is 20.4%.

As for `CC1=CC(=O)N(Nc2nc(-c3cccs3)nc3sc(-c4ccc(F)cc4)c(C)c23)C1=O`, the remaining at 0.5 h, 1 µM turned out to be 54.5%.

The next data set concerns the target T1, Receptor-type tyrosine-protein kinase FLT3 (Homo sapiens, UniProt P36888).
T1 sequence (P36888 whole entry): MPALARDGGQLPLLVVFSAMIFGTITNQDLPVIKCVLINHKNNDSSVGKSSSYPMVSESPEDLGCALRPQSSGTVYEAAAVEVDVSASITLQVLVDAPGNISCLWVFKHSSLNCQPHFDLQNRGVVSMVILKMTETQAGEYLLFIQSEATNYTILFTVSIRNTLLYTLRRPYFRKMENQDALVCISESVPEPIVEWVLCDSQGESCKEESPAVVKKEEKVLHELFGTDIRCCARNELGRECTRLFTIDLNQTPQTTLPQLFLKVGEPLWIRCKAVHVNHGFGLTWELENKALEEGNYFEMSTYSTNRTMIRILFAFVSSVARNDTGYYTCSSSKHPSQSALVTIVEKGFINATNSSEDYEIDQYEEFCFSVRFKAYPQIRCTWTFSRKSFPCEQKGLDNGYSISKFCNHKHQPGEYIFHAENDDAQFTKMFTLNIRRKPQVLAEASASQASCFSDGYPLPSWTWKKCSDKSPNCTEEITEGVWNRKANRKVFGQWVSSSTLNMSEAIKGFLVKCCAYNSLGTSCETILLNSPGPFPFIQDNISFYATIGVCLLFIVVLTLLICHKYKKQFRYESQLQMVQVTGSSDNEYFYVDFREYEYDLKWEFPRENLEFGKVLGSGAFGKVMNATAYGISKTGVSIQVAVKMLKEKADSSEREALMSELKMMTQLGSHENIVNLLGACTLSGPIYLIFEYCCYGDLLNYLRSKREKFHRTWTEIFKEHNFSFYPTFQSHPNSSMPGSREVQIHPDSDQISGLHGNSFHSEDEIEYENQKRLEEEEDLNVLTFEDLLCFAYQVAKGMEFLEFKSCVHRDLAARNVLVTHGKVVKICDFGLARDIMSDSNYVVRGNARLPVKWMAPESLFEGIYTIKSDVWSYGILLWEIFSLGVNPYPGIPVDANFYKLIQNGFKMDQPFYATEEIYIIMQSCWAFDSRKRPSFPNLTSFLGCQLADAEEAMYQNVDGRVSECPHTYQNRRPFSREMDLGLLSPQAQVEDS
Nature of the data set: biochemical. The data set is classed as cell-based, Sf21.
Settings: not given
As for `CC1=CC(=O)N(Nc2nc(-c3cccs3)nc3sc(-c4ccc(OCCNCCC#N)cc4)c(C)c23)C1=O`, the IC50 – broadly, the concentration that gives 50% inhibition – is 191 nM.

`CC1=CC(=O)N(Nc2nc(-c3cccs3)nc3sc(-c4ccc(OCCNCc5ccccc5)cc4)c(C)c23)C1=O`: half-maximal inhibition (IC50) was put at 71.9 nM.

Consider `CC1=CC(=O)N(Nc2nc(-c3cccs3)nc3sc(C#N)c(C)c23)C1=O`, for which half-maximal inhibition (IC50) required 118 nM.

`CC1=CC(=O)N(Nc2nc(-c3cccs3)nc3sc(-c4ccc(F)cc4)cc23)C1=O` returned an IC50 of 124 nM.

In the next data set the target is Receptor-type tyrosine-protein kinase FLT3 (Homo sapiens, UniProt P36888, D835Y).
Assay: not given
Settings: not given
On to `CC1=CC(=O)N(Nc2nc(-c3cccs3)nc3sc(-c4ccc(OCCNCCC#N)cc4)c(C)c23)C1=O`, for which the IC50 turned out to be 29.4 nM.

In the case of `CC1=CC(=O)N(Nc2nc(-c3cccs3)nc3sc(-c4ccc(OCCNCc5ccccc5)cc4)c(C)c23)C1=O`, 9.48 nM corresponded to half-maximal inhibition (IC50).

`CC1=CC(=O)N(Nc2nc(-c3cccs3)nc3sc(C#N)c(C)c23)C1=O`: the IC50 was determined as 75 nM.

As to `CC1=CC(=O)N(Nc2nc(-c3cccs3)nc3sc(-c4ccc(F)cc4)cc23)C1=O`, the IC50 came to 54.4 nM.

System in another data set: not listed separately
Put plainly: Metabolic stability in human liver microsomes assessed as compound remaining at 1 uM after 30 mins in presence of NADPH by HPLC-MS analysis. The data set is classed as ADME. As to conditions: read-out: Stability.
Take `CC1=CC(=O)N(Nc2nc(-c3cccs3)nc3sc(-c4ccc(O)cc4)c(C)c23)C1=O`: the remaining at 0.5 h, 1 µM came out at 71.8%.

`CC1=CC(=O)N(Nc2nc(-c3cccs3)nc3sc(-c4ccc(OCCNCCC#N)cc4)c(C)c23)C1=O`: the remaining at 0.5 h, 1 µM was 52%.

Regarding `CC1=CC(=O)N(Nc2nc(-c3cccs3)nc3sc(-c4ccc(OCCNCc5ccccc5)cc4)c(C)c23)C1=O`, the remaining at 0.5 h, 1 µM was 86.2%.

For the molecule `CC1=CC(=O)N(Nc2nc(-c3cccs3)nc3sc(C#N)c(C)c23)C1=O`, the remaining at 0.5 h, 1 µM stood at 52.7%.

Turning to `CC1=CC(=O)N(Nc2nc(-c3cccs3)nc3sc(-c4ccc(OCc5ccc(F)cc5)cc4)c(C)c23)C1=O`, the remaining at 0.5 h, 1 µM is 66.9%.

On to `CC1=CC(=O)N(Nc2nc(-c3cccs3)nc3sc(-c4ccc(OCC5CCCO5)cc4)c(C)c23)C1=O` (stereo unspecified), for which the remaining at 0.5 h, 1 µM was found to be 41.7%.

With `CC1=CC(=O)N(Nc2nc(-c3cccs3)nc3sc(-c4ccc(F)cc4)cc23)C1=O`, the remaining at 0.5 h, 1 µM is 61%.

As for `CC1=CC(=O)N(Nc2nc(-c3cccs3)nc3sc(CO)c(C)c23)C1=O`, the remaining at 0.5 h, 1 µM was determined as 24.6%.

As for `CC1=CC(=O)N(Nc2nc(-c3cccs3)nc3sc(-c4ccc(F)cc4)c(C)c23)C1=O`, the remaining at 0.5 h, 1 µM was found to be 39.5%.
